Laboratory results from patent US11434234B2, “Methods and agents for treating disease” (ANGION BIOMEDICA CORP., priority 2014, dated 2022).

Target: T1, human CYP11B2 (Homo sapiens, UniProt P19099)
T1 construct: expressed in transfected cells; host or cells: V79 Chinese hamster cells
T1 sequence (P19099 25-503): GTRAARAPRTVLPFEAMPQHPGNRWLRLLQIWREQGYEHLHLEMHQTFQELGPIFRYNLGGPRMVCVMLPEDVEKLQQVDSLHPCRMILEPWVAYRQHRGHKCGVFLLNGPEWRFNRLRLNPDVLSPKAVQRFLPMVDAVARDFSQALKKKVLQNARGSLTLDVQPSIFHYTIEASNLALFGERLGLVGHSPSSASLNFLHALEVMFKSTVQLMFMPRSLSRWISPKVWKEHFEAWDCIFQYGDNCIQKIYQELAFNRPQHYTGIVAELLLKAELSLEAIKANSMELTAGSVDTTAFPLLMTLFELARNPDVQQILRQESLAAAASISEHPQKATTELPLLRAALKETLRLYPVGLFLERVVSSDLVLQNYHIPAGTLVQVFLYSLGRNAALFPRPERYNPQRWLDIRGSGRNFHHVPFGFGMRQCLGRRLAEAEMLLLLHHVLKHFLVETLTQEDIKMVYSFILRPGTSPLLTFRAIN
Experiment: Aldosterone inhibitory activity in V79 cells expressing human CYP11B2
Type: cell-based
Settings: V79 Chinese hamster cells stably transfected with human CYP11B2; substrate 11-deoxycorticosterone 100 nM; read-out: IC50, inhibition of the production of aldosterone
Method: For the determination of aldosterone inhibitory activity, tests were carried out using V79 Chinese hamster cells stably transfected with human CYP11B2 or CYP11B1 and using assay protocols as described in Ehmer P B, Bureik M, Bernhardt R, Muller U, Hartmann R W. Development of a test system for inhibitors of human aldosterone synthase (CYP11B2): screening in fission yeast and evaluation of selectivity in V79 cells. J. Steroid Biochem. Mol. Biol. 2002 June; 81(2):173-9. The concentration of the substrate 11-deoxycorticosterone in the assay was 100 nM.

SMILES	IC50
CCOc1ccncc1C(O)(c1nc2cccc(Br)c2s1)C(C)C (stereo not shown) [Example 1, 1-(7-bromobenzo[d]thiazol-2-yl)-1-(4-ethoxypyridin-3-yl)-2-methylpropan-1-ol]	< 1000 nM
CCCC(O)(c1nc2ccc(OC)cc2s1)c1cnccc1OCC (stereo not shown) [Example 48, 1-(4-ethoxypyridin-3-yl)-1-(6-methoxybenzo[d]thiazol-2-yl)butan-1-ol]	< 1000 nM
CCCC(O)(c1nc2cccc(Br)c2s1)c1cnccc1OC (stereo not shown) [Example 24, 1-(7-bromobenzo[d]thiazol-2-yl)-1-(4-methoxypyridin-3-yl)butan-1-ol]	< 1000 nM
CCCC(O)(c1nc2ccc(F)cc2s1)c1cnccc1OCC (stereo not shown) [Example 41, 1-(4-ethoxypyridin-3-yl)-1-(6-fluorobenzo[d]thiazol-2-yl)butan-1-ol]	< 1000 nM
CCCC(O)(c1nc2ccc(OC(F)(F)F)c(Br)c2s1)c1cnccc1OCC (stereo not shown) [Example 57, 1-(7-bromo-6-(trifluoromethoxy)benzo[d]thiazol-2-yl)-1-(4-ethoxypyridin-3-yl)butan-1-ol]	< 1000 nM
CC(C)Oc1ccncc1C(O)(c1nc2ccc(Br)cc2s1)C(C)C (stereo not shown) [Example 35, 1-(6-bromobenzo[d]thiazol-2-yl)-1-(4-isopropoxypyridin-3-yl)-2-methylpropan-1-ol]	< 1000 nM
CCCC(O)(c1nc2cc(Cl)c(OC(F)(F)F)cc2s1)c1cnccc1OCC (stereo not shown) [Example 58, 1-(5-chloro-6-(trifluoromethoxy)benzo[d]thiazol-2-yl)-1-(4-ethoxypyridin-3-yl)butan-1-ol]	< 1000 nM
CCCOc1ccncc1C(O)(CCC)c1nc2cc(Cl)c(OC(F)(F)F)cc2s1 (stereo not shown) [Example 63, 1-(5-chloro-6-(trifluoromethoxy)benzo[d]thiazol-2-yl)-1-(4-propoxypyridin-3-yl)butan-1-ol]	< 1000 nM
CCCC(O)(c1nc2cc3c(cc2s1)OC(F)(F)O3)c1cnccc1OCC (stereo not shown) [Example 52, 1-(2,2-difluoro-[1,3]dioxolo[4′,5′:4,5]benzo[1,2-d]thiazol-6-yl)-1-(4-ethoxypyridin-3-yl)butan-1-ol]	< 1000 nM
CCCC(O)(c1nc2ccc(Oc3ccc(F)cc3)cc2s1)c1cnccc1OCC (stereo not shown) [Example 55, 1-(4-ethoxypyridin-3-yl)-1-(6-(4-fluorophenoxy)benzo[d]thiazol-2-yl)butan-1-ol]	< 1000 nM
COc1ccncc1C(O)c1nc2ccc(Br)cc2s1 (stereo not shown) [Example 26, (6-bromobenzo[d]thiazol-2-yl)(4-methoxypyridin-3-yl)methanol]	< 1000 nM
CCCOc1ccncc1C(O)(CCC)c1nc2ccc(OC(F)(F)F)c(Cl)c2s1 (stereo not shown) [Example 64, 1-(7-chloro-6-(trifluoromethoxy)benzo[d]thiazol-2-yl)-1-(4-propoxypyridin-3-yl)butan-1-ol]	< 1000 nM
CCCC(O)(c1nc2cc(Cl)c(OCC(F)(F)F)cc2s1)c1cnccc1OCC (stereo not shown) [Example 69, 1-(5-chloro-6-(2,2,2-trifluoroethoxy)benzo[d]thiazol-2-yl)-1-(4-ethoxypyridin-3-yl)butan-1-ol]	< 1000 nM
CCCC(O)(c1nc2ccc(C(F)(F)F)cc2s1)c1cnccc1OCC (stereo not shown) [Example 45, 1-(4-ethoxypyridin-3-yl)-1-(6-(trifluoromethyl)benzo[d]thiazol-2-yl)butan-1-ol]	< 1000 nM
CCCC(O)(c1nc2cccc(Cl)c2s1)c1cnccc1OCC (stereo not shown) [Example 42, 1-(7-chlorobenzo[d]thiazol-2-yl)-1-(4-ethoxypyridin-3-yl)butan-1-ol]	< 1000 nM
CCCC(O)(c1nc2ccc(Cl)cc2s1)c1cnccc1OCC (stereo not shown) [Example 39, 1-(6-chlorobenzo[d]thiazol-2-yl)-1-(4-ethoxypyridin-3-yl)butan-1-ol]	< 1000 nM
CCCC(O)(c1nc2ccc(Br)cc2s1)c1cnccc1OC (stereo not shown) [Example 70, 1-(6-bromobenzo[d]thiazol-2-yl)-1-(4-methoxypyridin-3-yl)butan-1-ol]	< 1000 nM
CCCOc1ccncc1C(O)(CCC)c1nc2ccc(OC(F)(F)F)cc2s1 (stereo not shown) [Example 51, 1-(4-propoxypyridin-3-yl)-1-(6-(trifluoromethoxy)benzo[d]thiazol-2-yl)butan-1-ol]	< 1000 nM
CCCC(O)(c1nc2ccc([N+](=O)[O-])cc2s1)c1cnccc1OCC (stereo not shown) [Example 40, 1-(4-ethoxypyridin-3-yl)-1-(6-nitrobenzo[d]thiazol-2-yl)butan-1-ol]	< 1000 nM
CCCC(O)(c1nc2c(F)ccc(F)c2s1)c1cnccc1OCC (stereo not shown) [Example 43, 1-(4,7-difluorobenzo[d]thiazol-2-yl)-1-(4-ethoxypyridin-3-yl)butan-1-ol]	< 1000 nM

SMILES	IC50
CCOc1ccncc1C(O)(c1nc2ccc(Br)cc2s1)C(C)C (stereo not shown) [Example 32, 1-(6-bromobenzo[d]thiazol-2-yl)-1-(4-ethoxypyridin-3-yl)-2-methylpropan-1-ol]	< 1000 nM
CCCC(O)(c1nc2ccc(Br)cc2s1)c1cnccc1OCC (stereo not shown) [Example 29, 1-(6-bromobenzo[d]thiazol-2-yl)-1-(4-ethoxypyridin-3-yl)butan-1-ol]	< 1000 nM
COc1ccncc1C(O)(c1nc2ccc(Br)cc2s1)C(C)C (stereo not shown) [Example 25, 1-(6-bromobenzo[d]thiazol-2-yl)-1-(4-methoxypyridin-3-yl)-2-methylpropan-1-ol]	< 1000 nM
COc1ccncc1C(O)(c1nc2cccc(Br)c2s1)C(C)C (stereo not shown) [1-(7-bromobenzo[d]thiazol-2-yl)-1-(4-methoxypyridin-3-yl)-2-methylpropan-1-ol]	< 1000 nM
CCCC(O)(c1nc2cc(C)c(OC(F)(F)F)cc2s1)c1cnccc1OCC (stereo not shown) [Example 60, 1-(4-ethoxypyridin-3-yl)-1-(5-methyl-6-(trifluoromethoxy)benzo[d]thiazol-2-yl)butan-1-ol]	< 1000 nM
CCCC(O)(c1nc2ccc(Oc3ccc(OC(F)(F)F)cc3)cc2s1)c1cnccc1OCC (stereo not shown) [Example 54, 1-(4-ethoxypyridin-3-yl)-1-(6-(4-(trifluoromethoxy)phenoxy)benzo[d]thiazol-2-yl)butan-1-ol]	< 1000 nM
CC(C)c1ccncc1C(O)(c1nc2ccc(Br)cc2s1)C(C)C (stereo not shown) [Example 33, 1-(6-bromobenzo[d]thiazol-2-yl)-1-(4-isopropylpyridin-3-yl)-2-methylpropan-1-ol]	< 1000 nM
CCCC(O)(c1nc2cc(Cl)c(Cl)cc2s1)c1cnccc1OCC (stereo not shown) [Example 50, 1-(5,6-dichlorobenzo[d]thiazol-2-yl)-1-(4-ethoxypyridin-3-yl)butan-1-ol]	< 1000 nM
CCCC(O)(c1nc2cc(F)c(OC(F)(F)F)cc2s1)c1cnccc1OCC (stereo not shown) [Example 62, 1-(4-ethoxypyridin-3-yl)-1-(5-fluoro-6-(trifluoromethoxy)benzo[d]thiazol-2-yl)butan-1-ol]	< 1000 nM
CC(C)Oc1ccncc1C(O)(c1nc2cccc(Br)c2s1)C(C)C (stereo not shown) [Example 36, 1-(7-bromobenzo[d]thiazol-2-yl)-1-(4-isopropoxypyridin-3-yl)-2-methylpropan-1-ol]	< 1000 nM
CCCC(O)(c1nc2cc(Br)c(OC(F)(F)F)cc2s1)c1cnccc1OCC (stereo not shown) [Example 56, 1-(5-bromo-6-(trifluoromethoxy)benzo[d]thiazol-2-yl)-1-(4-ethoxypyridin-3-yl)butan-1-ol]	< 1000 nM
CCCC(O)(c1nc2cccc(Br)c2s1)c1cnccc1C(C)C (stereo not shown) [Example 38, 1-(7-bromobenzo[d]thiazol-2-yl)-1-(4-isopropylpyridin-3-yl)butan-1-ol]	< 1000 nM
COc1ccncc1C(O)c1nc2cccc(Br)c2s1 (stereo not shown) [Example 27, (7-bromobenzo[d]thiazol-2-yl)(4-methoxypyridin-3-yl)methanol]	< 1000 nM
CCCC(O)(c1nc2cccc(OC)c2s1)c1cnccc1OCC (stereo not shown) [Example 44, 1-(4-ethoxypyridin-3-yl)-1-(7-methoxybenzo[d]thiazol-2-yl)butan-1-ol]	< 1000 nM
CCCC(O)(c1nc2cccc(Br)c2s1)c1cnccc1OCC (stereo not shown) [Example 30, 1-(7-bromobenzo[d]thiazol-2-yl)-1-(4-ethoxypyridin-3-yl)butan-1-ol]	< 1000 nM
COc1ccncc1C(O)(c1nc2ccccc2s1)C(C)(C)C (stereo not shown) [Example 31, 1-(benzo[d]thiazol-2-yl)-1-(4-methoxypyridin-3-yl)-2,2-dimethylpropan-1-ol]	< 1000 nM
CCCC(O)(c1nc2ccc(OC(F)(F)F)cc2s1)c1cnccc1OC(C)C (stereo not shown) [Example 49, 1-(4-isopropoxypyridin-3-yl)-1-(6-(trifluoromethoxy)benzo[d]thiazol-2-yl)butan-1-ol]	< 1000 nM
CCCC(O)(c1nc2ccc(C(N)=O)cc2s1)c1cnccc1OCC (stereo not shown) [Example 73, 2-(1-(4-ethoxypyridin-3-yl)-1-hydroxybutyl)benzo[d]thiazole-6-carboxamide]	< 1000 nM
CC(C)c1ccncc1C(O)(c1nc2cccc(Br)c2s1)C(C)C (stereo not shown) [Example 34, 1-(7-bromobenzo[d]thiazol-2-yl)-1-(4-isopropylpyridin-3-yl)-2-methylpropan-1-ol]	< 1000 nM
CCCC(O)(c1nc2ccc(OC(F)(F)F)c(Cl)c2s1)c1cnccc1OCC (stereo not shown) [Example 59, 1-(7-chloro-6-(trifluoromethoxy)benzo[d]thiazol-2-yl)-1-(4-ethoxypyridin-3-yl)butan-1-ol]	< 1000 nM
